The record followed here is ChEMBL document CHEMBL1201862, “PubChem BioAssay data set” (2004).

Structures are written as SMILES.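 Exposure lasted 48 hours, with cells grown in 96-well plates and compounds tested at five concentrations. GI50 marks 50% less growth.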 The source made the active and inactive calls. Rule as the data show it: active = GI50 up to about 1.1 µM and inactive = higher. Some results are limits rather than exact numbers.

Some test systems named below: LXFL 529; HOP-18; XF498; KM-20L2; M19-MEL; DMS-114; DMS-273; DLD-1; RXF 631.
Holding throughout (assay): inhibition of tumour cell growth, NCI panel, 48 h

In the case of `C[C@@H]1C[C@@H]([C@H](O)CC2CC(=O)NC(=O)C2)C(=O)[C@@H](C)C1` [CYCLOHEXIMIDE], the GI50 in the test on LXFL 529 is 0.0187 µM (active); with HOP-18 it was 0.249 µM (active); in the test with XF498, 0.0348 µM (active); with KM-20L2, 0.0705 µM (active); in the test with M19-MEL, 0.0607 µM (active); with DMS-114, 0.102 µM (active). For the same molecule, the GI50 is 0.0557 µM (active) in the test with DMS-273, 0.0405 µM (active) in the test on DLD-1 and 0.0248 µM (active) in the test on RXF 631.
Consider `Nc1ccc(S(=O)(=O)Nc2cnc3ccccc3n2)cc1` [SULFAQUINOXALINE], for which the GI50 with LXFL 529, in the test with HOP-18, with XF498, in the test on KM-20L2, in the test with M19-MEL and in the test with DMS-114 was > 100 µM (inactive) in each case. For the same molecule, the GI50 in the test with DMS-273, with DLD-1 and in the test with RXF 631 was > 100 µM (inactive) in each case.
